Assay results as given in patent US20120065221A1, “Extended Release Oral Pharmaceutical Compositions of 3-Hydroxy-N-Methylmorphinan and Method of Use” (priority 2009, published 2012).
pIC50: −log10 of the molar value. Counter-ions that a name gives are not always drawn. Like-named read-outs stand apart in the source and are kept apart here.

Experiments:
5-HT uptake = molecular target: T1, 5-HT uptake (Rattus norvegicus, UniProt P31652); experiment: 5-HT uptake assay; type: biochemical; conditions: rat brain synaptosomes
T1 construct: [^3H]5-HT incorporation into rat brain synaptosomes; from tissue; host or cells: rat brain synaptosomes
Description: (§1) This analysis was performed using validated proprietary software.

norepinephrine uptake = molecular target: T2, norepinephrine uptake (Rattus norvegicus, UniProt Q63380); experiment: norepinephrine uptake assay; type: biochemical; conditions: rat hypothalamus synaptosomes
T2 construct: [^3H]NE incorporation into rat hypothalamus synaptomsomes; from tissue; host or cells: rat hypothalamus synaptosomes
Description: as §1

NMDA = NMDA (Rattus norvegicus, UniProt P35439)
Description: The specific ligand binding to the receptors was defined as the difference between the total binding and the nonspecific binding determined in the presence of an excess of unlabelled ligand. The results were expressed as a percent of control specific binding ((measured specific binding/control specific binding)×100) and as a percent inhibition of control specific binding (100-((measured specific binding/control specific binding)×100)) obtained in the presence of the test compounds. The IC50 values (concentration causing a half-maximal inhibition of control specific binding) and Hill coefficients (nH) were determined by non-linear regression analysis of the competition curves generated with mean replicate values using Hill equation curve fitting (Y=D+[(A−D)/(1+(C/C50)^nH)], where Y=specific binding, D=minimum specific binding, A=maximum specific binding, C=compound concentration, C50=IC50, and nH=slope factor). This analysis was performed using validated proprietary software. The inhibition constants (Ki) were calculated using the Cheng Prusoff equation Ki=IC50/(1+(L/KD)), where L=concentration of radioligand in the assay, and KD=affinity of the radioligand for the receptor). A scatchard plot was used to determine the Kd.

[1] = system: serotonin reuptake and norepinephrine reuptake in rat brain synaptosomes; experiment: norepinephrine and serotonin reuptake inhibition in rat brain synaptosomes; type: biochemical
[2] = system: thermal nociception (hot-plate test); experiment: 53° C. hot-plate test of thermal nociception; type: in vivo, rat; conditions: compared with morphine
Description: Methods: Male Sprague-Dawley rats (200-300 grams) were used. Antinociceptive activity was determined by the 53° C. hot-plate test. The rat is placed on a metal plate heated to 53° C., and the latency to withdrawing or shaking or licking of a paw, or escape attempts by jumping were documented. A cut-off latency of 15 sec was employed. Drugs were prepared administered after baseline measurements were performed. Behavioral testing was performed 30, 45 and 60 minutes after dosing. The levorphanol data for were compared to historical morphine data. […] Dose-response curves along with A50 values (i.e., dose calculated to produce a 50% MPE) and confidence intervals were determined from linear regression analysis of the log dose-effect curves. Significant differences in potency between 2 dose-response curves were determined by applying the Student's t-statistic to variances of the A50 values obtained for each dose-response curve. The antinociceptive effect of levorphanol was determined in the 53° C. rat hot-plate test 30, 45 and 60 minutes after dosing. Hot-plate latencies for each time-point were compared to the mean baseline response by ANOVA followed by the post-hoc Fisher's Least Significant Difference test.

[3] = system: thermal nociception (tail flick test); experiment: Tail flick test of thermal nociception; type: in vivo, rat; conditions: compared with morphine
Description: Objective: To evaluate the efficacy and potency of levorphanol and to compare its potency relative to that of morphine in a model of thermal nociception (tail flick test).
Methods: Male Sprague-Dawley rats (200-300 grams) were used. Antinociceptive activity was determined by a significant increase in the latency to a reflexive flicking of the tail away from a radiant heat (infrared) source projected onto a small area on the ventral aspect of the tail. Baseline tail flick latencies were determined prior to any drug administration. The antinociceptive effect of levorphanol was determined 30, 45 and 60 minutes after dosing. […] Tail flick latencies for each time-point were compared to the mean baseline response by ANOVA followed by the post-hoc Fisher's Least Significant Difference test. A significant increase from the baseline was considered antinociceptive. […] Dose-response curves along with A50 values (i.e., dose calculated to produce a 50% MPE) and confidence intervals were determined from linear regression analysis of the log dose-effect curves. Significant differences in potency between 2 dose-response curves were determined by applying the Student's t-statistic to variances of the A50 values obtained for each dose-response curve.

[4] = American Pain Society 2008, cited from earlier work
[5] = cited from earlier work; for plasma half life: American Pain Society 2008; for half-life of oral levorphanol: Dixon et al 1983
[6] = published pharmacokinetics of oral levorphanol (prescribing information, American Pain Society, Dixon et al)
[7] = IC50, expressed as levorphanol base
[8] = IC50, expressed as levorphanol tartrate

T2 sequence (Q63380 1-617): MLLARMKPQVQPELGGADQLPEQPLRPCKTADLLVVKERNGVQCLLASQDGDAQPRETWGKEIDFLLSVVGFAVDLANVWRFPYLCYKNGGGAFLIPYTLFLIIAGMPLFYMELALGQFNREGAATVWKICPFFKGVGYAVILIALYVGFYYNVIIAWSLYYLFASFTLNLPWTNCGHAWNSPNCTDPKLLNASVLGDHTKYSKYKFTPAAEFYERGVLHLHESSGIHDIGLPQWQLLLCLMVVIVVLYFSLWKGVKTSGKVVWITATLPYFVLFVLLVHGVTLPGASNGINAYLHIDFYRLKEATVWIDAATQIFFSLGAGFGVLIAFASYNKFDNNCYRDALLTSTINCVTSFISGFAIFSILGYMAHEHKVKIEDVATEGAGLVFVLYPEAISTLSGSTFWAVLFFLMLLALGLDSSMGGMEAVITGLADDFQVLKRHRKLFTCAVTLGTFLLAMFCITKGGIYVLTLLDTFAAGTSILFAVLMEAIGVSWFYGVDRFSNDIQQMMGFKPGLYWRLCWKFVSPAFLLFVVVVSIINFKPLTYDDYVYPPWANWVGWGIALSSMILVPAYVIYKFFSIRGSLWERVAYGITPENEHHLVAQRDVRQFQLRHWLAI
T1 sequence (P31652 whole entry): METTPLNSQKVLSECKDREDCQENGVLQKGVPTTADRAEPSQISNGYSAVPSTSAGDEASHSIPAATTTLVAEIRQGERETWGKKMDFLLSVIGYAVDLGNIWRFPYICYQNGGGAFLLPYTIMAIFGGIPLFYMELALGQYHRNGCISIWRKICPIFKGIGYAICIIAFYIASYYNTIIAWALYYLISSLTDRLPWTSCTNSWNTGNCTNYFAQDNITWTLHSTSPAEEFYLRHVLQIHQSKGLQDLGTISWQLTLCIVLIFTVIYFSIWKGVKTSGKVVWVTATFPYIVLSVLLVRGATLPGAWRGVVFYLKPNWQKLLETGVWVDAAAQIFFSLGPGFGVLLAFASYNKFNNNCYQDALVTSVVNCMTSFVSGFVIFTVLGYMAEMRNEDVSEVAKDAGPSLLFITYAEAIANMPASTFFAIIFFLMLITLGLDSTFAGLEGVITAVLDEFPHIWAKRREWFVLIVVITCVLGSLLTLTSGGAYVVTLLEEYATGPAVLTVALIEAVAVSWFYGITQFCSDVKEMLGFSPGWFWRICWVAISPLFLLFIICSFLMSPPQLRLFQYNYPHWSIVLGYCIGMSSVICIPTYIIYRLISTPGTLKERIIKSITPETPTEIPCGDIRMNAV

| SMILES | pIC50 (5-HT uptake; [7]) | pIC50 (5-HT uptake; [8]) | pIC50 (norepinephrine uptake; [7]) | pIC50 (norepinephrine uptake; [8]) | inhibition (NMDA) [%] | selectivity for serotonin reuptake inhibition over norepinephrine reuptake inhibition [1] | duration of analgesic action [2] | duration of analgesic action [3] | dose equianalgesic to oral morphine sulfate 30 mg ([4]; acute pain) [mg] | dose equianalgesic to oral morphine sulfate 30 mg ([4]; chronic pain) [mg] | plasma half life [5] [h] | plasma half life ([5]; after 1 week of dosing) [h] | half-life of oral levorphanol ([5]; one patient) | half-life of oral levorphanol ([5]; second patient) [h] | mean time to steady state ([6]; using the average of the two reported values) [h] | time to reach steady state therapeutic concentration upon repeated dosing ([6]; using the higher reported 30 hour half-life) [h] | time to reach steady state therapeutic concentration upon repeated dosing ([6]; using the lower reported 16 hour half-life) [h] |
| --- | --- | --- | --- | --- | --- | --- | --- | --- | --- | --- | --- | --- | --- | --- | --- | --- | --- |
| CN1CC[C@]23CCCC[C@H]2[C@H]1Cc1ccc(O)cc13 [Levorphanol Tartrate, morphinan-3-ol, 17-methyl-, [R—(R*,R*)]-2,3-dihydroxybutane-dioate (1:1) (salt) dihydrate] | 7.52 | 7.28 | 5.91 | 5.68 | 91 |  |  |  |  |  |  |  |  |  |  |  |  |
| CN1CC[C@]23CCCC[C@H]2[C@H]1Cc1ccc(O)cc13 [levorphanol, l 3-hydroxy-N-methylmorphinan] |  |  |  |  |  | approximately 40 fold | shorter than that of morphine | shorter than that of morphine | 4 | 1 | 12 to 16 | 90 to 120 | approximately 16 hours | 30 | 115 | 150 | 80 |
